This note sets out measurements from paper PMC4297292 (Cancer Cell, 2015).

The term IC50 denotes the concentration needed to halve the response being measured. A low value points to greater potency. As usually defined, the bioavailability is dose-corrected exposure relative to a reference, in per cent. Higher therefore signals much systemic uptake.

Some results are limits rather than exact numbers.

For data set [1], the system named is caspase 3 and PARP cleavage in patient #2 cells. Nature of the data set: PARP and caspase 3 immunoblot. The format is cell-based. Particulars: 1 μM; 4 hr. In general terms: A western blot detects proteins with antibodies after separation by electrophoresis.
In a further data set the test system is patient #3 PDX. Nature of the data set: PDX growth. The conditions noted are these: for PDX growth: PLX4720 45 mg/kg, CCT compounds 20 mg/kg daily gavage, NSG mice. The data set is classed as in vivo, NSG mice.
For data set [2], the system named is ERK and SRC in patient #3 PDX. Nature of the data set: pERK/pSFK immunoblot in PDX. The format is in vivo, mice. Particulars: PLX4720 45 mg/kg, CCT compounds 20 mg/kg daily gavage.
The subject of data set [3] is PLX4720-resistant PDX from patient #1. Nature of the data set: PDX growth. The format is in vivo, NSG mice. Particulars: PLX4720 45 mg/kg, CCT compounds 20 mg/kg daily gavage.
In data set [4] the test system is MEK, ERK and SRC/SFKs in patient #2 cells. The data set can be described thus: pMEK, pERK, pSFK immunoblot. The data set is classed as cell-based. The conditions noted are these: 4 hr; for inhibition of MEK, ERK, and SRC: 1 μM.
The subject of data set [5] is patient #2 cell xenograft. The data set can be described thus: Xenograft growth. The format is in vivo, nude mice. Particulars: for xenograft growth: PLX4720 90 mg/kg, CCT compounds 20 mg/kg oral daily, nude mice.
Data set [6] relates to patient #2 cells (vemurafenib-resistant melanoma). The data set can be described thus: Cell proliferation assay. The format is cell-based.
A further data set concerns patient #4 PDX. The data set can be described thus: PDX growth. The format is in vivo, NSG mice. The conditions noted are these: for PDX sensitivity: PLX4720 45 mg/kg, CCT compounds 20 mg/kg daily gavage, NSG mice.
For another data set, the system named is patient #3 tumor cells. The data set can be described thus: Cell proliferation assay. The format is cell-based. The conditions noted are these: CellTiter Glo.
The next data set has as its system BRAF^V600E A375 cells. The data set can be described thus: Cell proliferation assay. The format is cell-based. The conditions noted are these: CellTiter Glo. Background: In ATP-based viability assays light output follows the ATP content of the culture.
Another data set concerns the target CRAF (Homo sapiens, UniProt P04049, Y340D/Y341D). Nature of the data set: Z'-LYTE kinase assay. The data set is classed as biochemical. The conditions noted are these: Table 1.
Data set [7] in a line: Pharmacokinetic studies, plasma, oral and intravenous dosing. The data set is classed as in vivo, Balb/c mice.
The test system of data set [8] is BRAF^V600E A375 xenograft. The data set can be described thus: Xenograft growth. The format is in vivo, nude mice.
In data set [9] the test system is ERK activity in SK-Mel 23 cells. The data set can be described thus: pERK immunoblot. The data set is classed as cell-based. The conditions noted are these: 1 μM; 4 hr.
Data set [10] relates to RAS mutant melanoma and colorectal cancer cells. The data set can be described thus: Cell growth inhibition. The data set is classed as cell-based. The conditions noted are these: Figures 2A and 2B.
The test system of another data set is PDX from patient #5. Nature of the data set: PDX growth. The format is in vivo, NSG mice.
Another data set concerns SK-Mel 23 cells. Nature of the data set: Cell growth inhibition. The data set is classed as cell-based. The conditions noted are these: Figure 2A.
For data set [11], the system named is melanoma and colorectal cancer cell lines that are mutant for BRAF. Nature of the data set: Cell growth inhibition. The data set is classed as cell-based. The conditions noted are these: Figures 2A and 2B.
Data set [12] has as its system MEK in NRAS mutant D04 cells. Nature of the data set: pMEK/pERK immunoblot. The format is cell-based. The conditions noted are these: 24 hr.
Data set [13] is described as follows: Single and repeat dose tolerability / oral toxicity. The data set is classed as in vivo, CD-1 mice.
Another data set has as its system A375 cells. The data set can be described thus: Colony formation. The data set is classed as cell-based. The conditions noted are these: 0.5 μM; 20 days.
The test system of data set [14] is MEK and ERK in WM266.4 cells (BRAF mutant). The data set can be described thus: pMEK/pERK immunoblot. The format is cell-based. The conditions noted are these: 24 hr.
Data set [15] deals with panel of 63 protein kinases. Nature of the data set: Efficacy against a panel of protein kinases. Particulars: 1 μM, percent activity compared to DMSO. The data set is classed as biochemical.
A further data set has as its target SRC (Homo sapiens, UniProt P12931). The data set can be described thus: Z'-LYTE kinase assay. Particulars: IC50 SRC, Table 1. The format is biochemical.
The next data set deals with LCK (Homo sapiens, UniProt P06239). Nature of the data set: Z'-LYTE kinase assay. The format is biochemical.
LCK, sequence (P06239 whole entry): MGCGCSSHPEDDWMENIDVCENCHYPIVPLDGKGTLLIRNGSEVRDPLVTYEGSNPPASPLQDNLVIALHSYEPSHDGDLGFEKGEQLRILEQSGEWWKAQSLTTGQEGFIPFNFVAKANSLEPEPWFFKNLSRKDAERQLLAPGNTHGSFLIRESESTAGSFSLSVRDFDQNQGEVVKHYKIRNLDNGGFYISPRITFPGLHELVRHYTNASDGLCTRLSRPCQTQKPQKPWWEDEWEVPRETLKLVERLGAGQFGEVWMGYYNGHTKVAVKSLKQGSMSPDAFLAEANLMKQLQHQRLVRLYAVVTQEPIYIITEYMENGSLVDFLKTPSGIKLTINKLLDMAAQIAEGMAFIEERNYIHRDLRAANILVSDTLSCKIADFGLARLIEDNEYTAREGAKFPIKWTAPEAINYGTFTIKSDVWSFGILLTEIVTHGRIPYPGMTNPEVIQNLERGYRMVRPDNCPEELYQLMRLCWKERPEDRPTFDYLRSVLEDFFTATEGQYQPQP
A further data set concerns the target COT (Homo sapiens, UniProt P41279). The data set can be described thus: Z'-LYTE kinase assay. The format is biochemical.
The next data set has as its system PDX from patient #13. The data set can be described thus: PDX growth. The data set is classed as in vivo, NSG mice. The conditions noted are these: 20 mg/kg daily gavage; patient #13 PDX study.
The target in the next data set is MEK1 (Homo sapiens, UniProt Q02750). The data set can be described thus: Z'-LYTE kinase assay. The format is biochemical.
MEK1, sequence (Q02750 whole entry): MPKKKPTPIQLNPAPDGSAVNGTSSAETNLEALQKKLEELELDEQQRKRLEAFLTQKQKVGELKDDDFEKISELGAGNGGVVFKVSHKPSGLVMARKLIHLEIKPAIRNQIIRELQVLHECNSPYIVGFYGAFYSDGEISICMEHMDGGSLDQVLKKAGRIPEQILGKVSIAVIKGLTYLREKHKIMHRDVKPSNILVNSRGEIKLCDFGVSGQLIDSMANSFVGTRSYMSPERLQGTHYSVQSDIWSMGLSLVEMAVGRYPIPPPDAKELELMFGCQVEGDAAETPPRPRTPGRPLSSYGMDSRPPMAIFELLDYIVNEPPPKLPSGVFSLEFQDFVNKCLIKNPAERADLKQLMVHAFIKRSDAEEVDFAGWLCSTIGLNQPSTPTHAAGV
The test system of data set [16] is cancer cells that are wild-type for BRAF and NRAS. The data set can be described thus: Cell growth inhibition. The data set is classed as cell-based. The conditions noted are these: Figure 2A, in general.
The subject of data set [17] is NRAS mutant D04 xenograft. Nature of the data set: Xenograft growth. The data set is classed as in vivo. Particulars: 20 mg/kg oral daily; nude mice.
Another data set deals with NRAS mutant D04 cells. The data set can be described thus: Cell proliferation assay. The format is cell-based. The conditions noted are these: CellTiter Glo.
Data set [18] has as its system cell lines from patient #5 tumor. The data set can be described thus: Cell proliferation assay. The data set is classed as cell-based. The conditions noted are these: CellTiter Glo.
The test system of data set [19] is A375/R xenograft (PLX4720-resistant A375). Nature of the data set: Xenograft growth. The data set is classed as in vivo, nude mice. The conditions noted are these: 20 mg/kg oral daily.
The mark [20] stands for this setting: 25 mg/kg daily for 19 days, CD-1 mice.

SRC, sequence (P12931 whole entry): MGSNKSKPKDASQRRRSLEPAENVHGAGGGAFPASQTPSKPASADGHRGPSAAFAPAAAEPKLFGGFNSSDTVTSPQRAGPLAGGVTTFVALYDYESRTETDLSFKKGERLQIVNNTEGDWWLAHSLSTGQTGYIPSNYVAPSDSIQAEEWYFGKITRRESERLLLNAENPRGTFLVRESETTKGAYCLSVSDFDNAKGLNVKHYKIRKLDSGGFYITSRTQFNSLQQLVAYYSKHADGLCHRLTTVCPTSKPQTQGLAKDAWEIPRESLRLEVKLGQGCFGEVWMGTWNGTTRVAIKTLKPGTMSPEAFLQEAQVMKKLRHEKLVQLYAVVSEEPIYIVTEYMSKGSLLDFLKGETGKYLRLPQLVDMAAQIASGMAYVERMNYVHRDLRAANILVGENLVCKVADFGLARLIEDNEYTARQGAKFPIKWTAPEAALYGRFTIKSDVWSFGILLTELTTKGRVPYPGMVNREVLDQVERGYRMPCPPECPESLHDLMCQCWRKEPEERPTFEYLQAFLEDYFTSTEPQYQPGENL
CRAF, sequence (P04049 306-648 Y340D/Y341D limits assumed): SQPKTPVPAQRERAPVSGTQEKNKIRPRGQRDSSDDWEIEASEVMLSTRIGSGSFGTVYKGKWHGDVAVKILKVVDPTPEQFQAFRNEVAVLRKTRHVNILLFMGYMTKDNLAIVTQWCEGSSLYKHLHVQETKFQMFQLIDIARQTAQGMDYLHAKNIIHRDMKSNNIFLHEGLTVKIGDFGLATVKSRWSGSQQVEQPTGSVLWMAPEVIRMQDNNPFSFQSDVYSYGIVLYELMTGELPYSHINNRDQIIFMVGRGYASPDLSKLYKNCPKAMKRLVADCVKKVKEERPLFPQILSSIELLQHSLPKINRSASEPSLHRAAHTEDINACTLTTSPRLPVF
COT, sequence (P41279 whole entry): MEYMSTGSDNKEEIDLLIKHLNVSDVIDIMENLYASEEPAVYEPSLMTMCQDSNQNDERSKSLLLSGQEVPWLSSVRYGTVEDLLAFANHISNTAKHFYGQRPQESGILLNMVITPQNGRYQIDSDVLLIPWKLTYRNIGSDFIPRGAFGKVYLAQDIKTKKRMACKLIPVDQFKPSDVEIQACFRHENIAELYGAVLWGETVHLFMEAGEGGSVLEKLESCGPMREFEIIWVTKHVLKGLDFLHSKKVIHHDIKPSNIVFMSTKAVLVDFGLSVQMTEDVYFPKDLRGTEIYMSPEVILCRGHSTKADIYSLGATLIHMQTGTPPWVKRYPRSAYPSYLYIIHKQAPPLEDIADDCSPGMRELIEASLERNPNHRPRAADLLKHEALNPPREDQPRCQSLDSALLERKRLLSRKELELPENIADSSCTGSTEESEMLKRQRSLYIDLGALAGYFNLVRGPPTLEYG

For the compound `CCCS(=O)(=O)Nc1ccc(F)c(C(=O)c2c[nH]c3ncc(Cl)cc23)c1F` [PLX4720, reference compound], the “caspase 3 and PARP cleavage (apoptosis)” value in [1] is “does not”. In addition, the PDX growth entry with patient #3 PDX was “neither does it inhibit the growth”. Moreover, the “inhibition of ERK and SRC in PDX” value in data set [2] is reported as “does not inhibit ERK or SRC”. In addition, the PDX sensitivity entry in [3] was “resistance”; in the data set on patient #4 PDX it was “resistant”. Moreover, the “inhibition of MEK, ERK, and SRC” value in data set [4] is “does not”. For the same compound, the xenograft growth entry in [5] is “resistant”. In data set [6] (CellTiter Glo), the cell line sensitivity result is recorded as “resistant”. In addition, the cell sensitivity result in the data set with patient #3 tumor cells is recorded as “not inhibited”.

Turning to `COc1cc2ncnc(Nc3ccc(Oc4ccccc4)cc3)c2cc1OC` [SRC inhibitor 1], in data set [6] (40 µM SRC Inhibitor 1 with TAK632, Figure S3D), the “effect in combination with TAK632” value is listed as “increases the activity of the pan-RAF inhibitor TAK632”. For the same compound, the activity alone entry in data set [6] (CellTiter Glo, Figure S3D) is “inactive alone”.

As for `C[S+]([O-])c1ccc(-c2nc(-c3ccncc3)c(-c3ccc(F)cc3)[nH]2)cc1` (stereo not drawn) [SB203580], the “cooperation with the pan-RAF inhibitors RAF265 or MLN2480” value in data set [6] (10 µM SB203580 in combination, Figure S3E) is recorded as “does not cooperate”.

Regarding `CC(C)(C)c1cc(NC(=O)Nc2ccc(Oc3ccnc4[nH]c(=O)cnc34)cc2F)n(-c2ccccc2)n1` [CCT196969], the “growth inhibition of BRAF mutant melanoma cells, compared with PLX4720” value in the data set on BRAF^V600E A375 cells is listed as “more potently than PLX4720”. In addition, the “caspase 3 and PARP cleavage (apoptosis)” value in data set [1] was “induce caspase 3 and PARP cleavage”. Further, the body weight result is listed as “without causing body weight loss” with patient #3 PDX (20 mg/kg daily gavage, patient #3 PDX study); “did not observe any loss in body weight” in the data set on PDX from patient #5 (20 mg/kg daily gavage, patient #5 PDX study); “no effect on body weight” in [13] (single dose 40 mg/kg, oral gavage, CD-1 mice); “without causing any body weight loss” in data set [5] (20 mg/kg oral daily, patient #2 xenograft study); “no body weight loss was observed” in the data set on PDX from patient #13; “do not cause body weight loss” in the data set with patient #4 PDX (20 mg/kg daily gavage, patient #4 PDX study). In data set [19] (A375/R xenograft study), the body weight result is on record as “without causing any body weight loss”. Moreover, in the data set on patient #3 PDX, the PDX growth entry is reported as “tumor regression”. For the same compound, the IC50 was 0.01 µM at CRAF; 0.03 µM against SRC; 0.014 µM on LCK; more than 10 µM at COT; more than 10 µM on MEK1. Further, the bioavailability in data set [7] (Balb/c, mouse, plasma, po, 10 mg/kg) is approximately 55%. In data set [7] (oral 10 mg/kg/day), the “area under the curve” value is ~416,000 nM.hr. The same compound registered a plasma concentration in [7] (oral 10 mg/kg/day, at 24 hr, 10 mg/kg/day) of approximately 1000 nM. Besides, the xenograft growth entry in [8] (10 mg/kg/day, data not shown) is given as “also effective”; in [8] (20 mg/kg/day oral, 7 days/week, nude mice), “tumor regression”; in data set [5], “complete inhibition”; in [17], “inhibit the growth”; in data set [19] (nude mice), “inhibit the growth”. Moreover, in [9], the “ERK activity in SK-Mel 23 cells” value is “sensitive”. The “activity against RAS mutant cells” value in data set [10] is reported as “also active”. The “PDX sensitivity compared with PLX4720” value in the data set on PDX from patient #5 (PLX4720 45 mg/kg, CCT compounds 20 mg/kg daily gavage, NSG mice) is “more sensitive”. For the same compound, in the data set with SK-Mel 23 cells, the “sensitivity of SK-Mel 23 cells” value is recorded as “sensitive”. The “activity against BRAF mutant cell lines” value in data set [11] is listed as “active”. The “inhibition of ERK and SRC in PDX” value in [2] was “inhibit ERK and SRC”. Besides, the “effect on MEK in NRAS mutant cells” value in [12] is recorded as “inhibit rather than activate MEK”. Further, in data set [13] (20 mg/kg daily × 24 days, CD-1 mice), the “clinical signs and body weight” value is “no clinical signs or body weight loss”. The “body weight and food intake” value in [13] (setting [20]) is “did not show any body weight loss or reduction in food intake”. Besides, the clinical signs entry in [13] (setting [20]) is “tachypnoea with decreased activity and excitation”; in data set [13] (single dose 40 mg/kg, oral gavage, CD-1 mice, 1 hr after dosing), “slight, transient tachypnoea”. In data set [13] (setting [20]), the mortality result is on record as “did not observe any mortality”. In addition, in data set [13] (25 mg/kg daily for 19 days, end of the study), the “microscopical examination of tissues” value is on record as “did not identify any treatment-related changes”. Further, in [13] (30 mg/kg for 4 days, oral gavage), the weight loss entry was “do not cause significant weight loss”. In addition, in [13] (single dose 20 mg/kg, oral gavage, CD-1 mice), the “clinical signs / adverse effects” value is “no observed adverse effects”. In addition, the “colony formation under continual exposure” value with A375 cells is “no cells are able to grow”. For the same compound, the PDX sensitivity result was “remains sensitive” in [3] and “sensitive” with patient #4 PDX. Also, in data set [4] (0.5 µM, Figure S3B), the “inhibition of SFKs” value is “also inhibit SFKs”. The “inhibition of MEK, ERK, and SRC” value in [4] is “inhibit MEK, ERK, and SRC”. Besides, the “inhibition of MEK and ERK” value in data set [14] was “inhibit MEK and ERK”. Further, the “kinases inhibited in a panel of protein kinases” value in data set [15] was “only inhibit SRC, LCK, and the p38 mitogen-activated protein kinases (MAPKs)”. The cell line sensitivity entry in [6] (CellTiter Glo) is “sensitive”. Further, the “growth inhibition compared with PLX4720, ARQ736, RAF265, MLN2480” value in data set [6] (CellTiter Glo, Figure S3C) was “more potently than any of the other inhibitors”. Also, the “activity against BRAF and NRAS wild-type cancer cells” value in data set [16] is listed as “not active”. The “NRAS mutant cell growth inhibition, compared with PLX4720” value with NRAS mutant D04 cells is on record as “more efficiently than does PLX4720”. Further, the “cell sensitivity compared with PLX4720” value in [18] was “more sensitive”. The cell sensitivity entry in the data set with patient #3 tumor cells is “sensitive”.
